Results taken from patent US10792301B2, “Therapeutic polysaccharide midi-GAGR and related materials and methods” (priority 2015, dated 2020).

Columns and labels:
[1] = tested on: phosphorylated CREB in mouse embryonic cortical neurons; assay: Nuclear p-CREB immunostaining in cortical neurons (Example 2); assay type: cell-based; conditions: 1 μM, 24 h
Protocol: (§1) Differentiated PC12 cells and mouse embryonic cortical neurons (E17, DIV14) were treated with mock, dextran, alginate, HA-GAGR or midi-GAGR (1 μM) for 24 h and fixed in 3.7% paraformaldehyde. The fixed cells and neurons were immunostained with antibodies against α-tubulin and phosopho-CREB (p-CREB) along with DAPI (nucleus).

[2] = tested on: Differentiated dopaminergic PC12 cells; assay: LIVE/DEAD viability of differentiated PC12 cells exposed to 6-OHDA; assay type: cell-based; conditions: 1 μM for 6 h, then 30 μM 6-OHDA for 24 h
Protocol: Differentiated dopaminergic PC12 cells and primary mouse embryonic cortical neurons (E17, DIV14) were treated with mock (H2O) or 1 μM of dextran, alginate, HA-GAGR or midi-GAGR for 6 h and insulated by oxidative stressors (30 μM 6-OHDA [PC12] and 10 μM amyloid β peptide [cortical neurons]) for 24 h.

[3] = tested on: phosphorylated CREB in differentiated PC12 cells; assay: Nuclear p-CREB immunostaining in PC12 cells; assay type: cell-based; conditions: 1 μM, 24 h
Protocol: as §1

[4] = tested on: primary mouse cortical neurons (E17, DIV4); assay: Neurite outgrowth in primary mouse cortical neurons; assay type: cell-based; conditions: 2 days; 1 μM midi-GAGR, dextran, alginate; 0.1 μM LA-GAGR; 0.01 μM HA-GAGR
Protocol: To analyze the effect of polysaccharides on neurite outgrowth, primary mouse cortical neurons were treated with vehicle (H2O) or 1 μM of dextran, alginate, or midi-GAGR, 0.01 μM of HA-GAGR, or 0.1 μM of LA-GAGR for 2 days prior to immunocytochemistry using anti-α-tubulin antibody and secondary Alexa488nm antibody. An etched grid coverslip containing 200 numbered boxes was used to select neurons objectively for image acquisition and analysis. A total of 24 boxes were randomly selected per treatment group. All the neurons having total neurite length longer than 4 times of the diameter of neuron cell body were chosen for image analysis. The total length of the neurites of each neuron was measured using Metamorph and used to calculate average total neurite length. To examine the effect of polysaccharides on the phosphorylation (activation) of nuclear CREB, neurons were stained with anti-pCREB antibody (Abcam & Santa Cruz biotechnologies, 2nd antibody with Alexa568nm), anti-α-tubulin antibody (Sigma, 2nd antibody with Alexa488nm), and DAPI (Sigma) after two-day incubation with vehicle (H2O) or 1 μM of dextran, alginate, or midi-GAGR, 0.01 μM of HA-GAGR, or 0.1 μM of LA-GAGR. […] The images of neurons on coverslips were taken by confocal microscopy at the same gain (850), offset (˜0.01) and exposure time (2 sec). The intensity of the staining of nuclear pCREB was measured using Metamorph and used to calculate average intensity. In addition, the phosphorylation of CREB in the cytosols of mouse cortical neurons treated with polysaccharides were detected by immunoblotting. Primary mouse neurons were dissected from 16 mouse embryos (E17) and plated in the wells of 6-well plates (1×10^6 cells/well), differentiated for 6 days, and treated with polysaccharides for 48 h. […] The protein bands on blots recognized by anti-pCREB (Santa Cruz Biotechnologies) and anti-CREB antibodies were detected on Amersham Hyperfilm™ ECL films (GE Healthcare Life Science) using SuperSignal® West Pico Chemiluminescent Substrate (Thermo Scientific).

[5] = tested on: Mouse cortical neurons (E17, DIV5); assay: LIVE/DEAD assay, pre-treated mouse cortical neurons with 4HNE, H2O2 or Aβ42; assay type: cell-based; conditions: pre-treatment 24 h (1 μM midi-GAGR, dextran, alginate; 0.1 μM LA-GAGR; 0.01 μM HA-GAGR); for neuron death after Aβ42 peptide: 2 μM Aβ42 48 h, vehicle about 30%; for neuron death after 4HNE: 10 μM 4HNE 24 h, vehicle ~26%; for neuron death after H2O2: 50 μM H2O2 24 h, vehicle ~25%
Source text: (§2) The protective effect of polysaccharides on primary cortical neurons from 4HNE, H2O2, and Aβ42 peptide (Sigma) was examined using LIVE/DEAD® Viability/Cytotoxicity Assay Kit (Life Technologies). Female pregnant mice (BALB/C, E17, Charles River Laboratories International, Inc.) or female pregnant SD rats (E17, bred in house) were anesthetized and dissected to obtain 8-9 embryos per animal. Cortical neurons were isolated from embryonic brains and differentiated on poly-L-lysine-coated coverslips in B27/neurobasal medium. For drug treatment before free radical treatment, mouse cortical neurons (5 days in vitro [DIV5.]) were treated with vehicle (H2O), 1 μM of 5 kD dextran (Sigma), alginate (Sigma), midi-GAGR, 0.01 μM of high acyl gellan gum (HA-GAGR, CPKelco Co.), or 0.1 μM of LA-GAGR for 24 h and then treated with 10 μM 4HNE or 50 μM H2O2 for 24 h, or 2 μM A[…]42 peptide for 48 h prior to viability/cytotoxicity assay. For drug co-treatment with free radicals, rat cortical neurons (DIV5) were treated with 1 μM of dextran, alginate, or midi-GAGR, 0.01 μM of HA-GAGR, or 0.1 μM of LA-GAGR along with either 10 μM 4HNE (24 h) or 2 μM Aβ42 peptide (48 h). To examine the extent to which midi-GAGR-mediated neuroprotection depends on FGFR1, rat cortical neurons (E17, DIV5) were pre-treated with 4 μM SU5402 (Sigma) for 6 h and treated with 10 μM 4HNE and either vehicle or 1 μM midi-GAGR for 24 h prior to cell viability/cytotoxicity assay. As controls, neurons were treated with SU5402, midi-GAGR, 4HNE, 4HNE plus midi-GAGR, or SU5402 plus midi-GAGR.
For cell viability/cytotoxicity measurement, neurons on glass coverslips were incubated in 1×PBS containing 2 μM calcein AM (live cells: green) and 4 μM ethidium homodimer-1 (dead cells: red) for 10 min at 37° C. Immediately thereafter, neurons were imaged by 10×objective using a fluorescence Olympus IX71 microscope (Olympus America Inc., Center Valley, Pa.) and, for the acquisition of high-quality images, using TCS SP5 multi-photon laser scanning confocal microscope.
Midi-GAGR attenuated neurite atrophy caused by free reactive radicals. It is now shown herein that midi-GAGR protect neurons from the death caused by free radical insults. The extent to which midi-GAGR protects the primary culture of rodent cortical neurons from 4HNE and H2O2 was determined. In addition to the radicals, amyloid β peptide (Aβ42) was also tested. Aβ42 peptide is a major causative factor that causes oxidative stress and neuron death. Mouse cortical neurons (E17, DIV5) were treated with 10 μM 4HNE (24 h), 50 μM H2O2 (24 h), or 2 μM Aβ42 peptide (48 h) after the treatment of the neurons with vehicle (H2O), midi-GAGR (1 μM), dextran (1 μM), alginate (1 μM), LA-GAGR (0.1 μM), or HA-GAGR (0.01 μM) for 24 h. The concentrations of 4HNE, H2O2, and Aβ42 peptide were chosen according to their patho-physiological concentrations. The concentrations of LA-GAGR and HA-GAGR were chosen because, within the same volume, the total numbers of sugar units in the polysaccharides at the concentrations are close to that of 1 μM midi-GAGR. The viability of neurons was assessed using LIVE/DEAD® Viability/Cytotoxicity Assay Kit in which membrane-permeant calcein AM is cleaved by esterase in live cells, thus yielding green fluorescence, and membrane-impermeant ethidium homodimer-1 stains the nucleic acids of plasma membrane-compromised cells with red fluorescence. The numbers of green (live) and red (dead) neurons in each condition were counted using Metamorph. Although the intensities of green fluorescent signals in neurons treated with either free radicals or Aβ42 peptide were weak, the neurons were included in the counting. About 8-9% of vehicle-treated neurons died during the process of live/dead cell assay (FIGS. 23A-23F, FIGS. 24A-24C).

[6] = tested on: pCREB in mouse cortical neurons (E17, DIV6); assay: Nuclear pCREB in midi-GAGR-treated neurons after signaling inhibitors; assay type: cell-based; conditions: inhibitor 6 h (SU5402 4 μM, staurosporine 3 nM, U0126 10 μM, LY294002 20 μM, KN-62 10 μM, PF-573228 1 μM), then 1 μM midi-GAGR 48 h
Protocol: To analyze the effect of polysaccharides on neurite outgrowth, primary mouse cortical neurons were treated with vehicle (H2O) or 1 μM of dextran, alginate, or midi-GAGR, 0.01 μM of HA-GAGR, or 0.1 μM of LA-GAGR for 2 days prior to immunocytochemistry using anti-α-tubulin antibody and secondary Alexa488nm antibody. An etched grid coverslip containing 200 numbered boxes was used to select neurons objectively for image acquisition and analysis. A total of 24 boxes were randomly selected per treatment group. All the neurons having total neurite length longer than 4 times of the diameter of neuron cell body were chosen for image analysis. The total length of the neurites of each neuron was measured using Metamorph and used to calculate average total neurite length. To examine the effect of polysaccharides on the phosphorylation (activation) of nuclear CREB, neurons were stained with anti-pCREB antibody (Abcam & Santa Cruz biotechnologies, 2nd antibody with Alexa568nm), anti-α-tubulin antibody (Sigma, 2nd antibody with Alexa488nm), and DAPI (Sigma) after two-day incubation with vehicle (H2O) or 1 μM of dextran, alginate, or midi-GAGR, 0.01 μM of HA-GAGR, or 0.1 μM of LA-GAGR. […] The images of neurons on coverslips were taken by confocal microscopy at the same gain (850), offset (˜0.01) and exposure time (2 sec). The intensity of the staining of nuclear pCREB was measured using Metamorph and used to calculate average intensity. In addition, the phosphorylation of CREB in the cytosols of mouse cortical neurons treated with polysaccharides were detected by immunoblotting. Primary mouse neurons were dissected from 16 mouse embryos (E17) and plated in the wells of 6-well plates (1×10^6 cells/well), differentiated for 6 days, and treated with polysaccharides for 48 h. Then, neurons were harvested and lysed in 1% Igepal CA-630 (Sigma)-containing PMEE buffer plus protease and phosphatase inhibitor cocktails (Sigma) for protein extraction. Extracted proteins were separated in 4-12% NuPAGE Bis-Tris protein gels (Life Technologies) and transferred to nitrocellulose membrane (GE Healthcare Life Science, Pittsburgh, Pa.) using a semidry blotter (Hoefer, Inc. San Francisco, Calif.). The protein bands on blots recognized by anti-pCREB (Santa Cruz Biotechnologies) and anti-CREB antibodies were detected on Amersham Hyperfilm™ ECL films (GE Healthcare Life Science) using SuperSignal® West Pico Chemiluminescent Substrate (Thermo Scientific).
Pharmacological agents were used to inhibit signaling molecules downstream of FGFR1 that mediate CREB phosphorylation. […] PF-573228 (PF, 1 μM) that inhibits FAK which sits at the bottleneck of the signaling pathway downstream of NCAM180 was also included to examine whether NCAM180 is involved in midi-GAGR-mediated CREB phosphorylation or not. […]

[7] = tested on: pCREB in mouse cortical neurons; assay: pCREB immunoblotting of neuron cytosols; assay type: cell-based; conditions: 48 h; 1 μM midi-GAGR, dextran, alginate; 0.1 μM LA-GAGR; 0.01 μM HA-GAGR
Protocol: (§3) To analyze the effect of polysaccharides on neurite outgrowth, primary mouse cortical neurons were treated with vehicle (H2O) or 1 μM of dextran, alginate, or midi-GAGR, 0.01 μM of HA-GAGR, or 0.1 μM of LA-GAGR for 2 days prior to immunocytochemistry using anti-α-tubulin antibody and secondary Alexa488nm antibody. An etched grid coverslip containing 200 numbered boxes was used to select neurons objectively for image acquisition and analysis. A total of 24 boxes were randomly selected per treatment group. All the neurons having total neurite length longer than 4 times of the diameter of neuron cell body were chosen for image analysis. The total length of the neurites of each neuron was measured using Metamorph and used to calculate average total neurite length. […] The intensity of the staining of nuclear pCREB was measured using Metamorph and used to calculate average intensity. In addition, the phosphorylation of CREB in the cytosols of mouse cortical neurons treated with polysaccharides were detected by immunoblotting. […] The protein bands on blots recognized by anti-pCREB (Santa Cruz Biotechnologies) and anti-CREB antibodies were detected on Amersham Hyperfilm™ ECL films (GE Healthcare Life Science) using SuperSignal® West Pico Chemiluminescent Substrate (Thermo Scientific). […]

[8] = ABTS Antioxidant Assay Kit; assay type: biochemical; conditions: 10 μM polysaccharide
Protocol: The antioxidant capacity of midi-GAGR was measured using ABTS Antioxidant Assay Kit (Zenbio Co.). […] This was slightly stronger than antioxidant capacity of LA-GAGR (10 μM LA-GAGR=15.4 μM trolox) (Table 2).

[9] = tested on: pCREB in mouse cortical neurons; assay: Nuclear pCREB immunostaining in mouse cortical neurons (Example 4); assay type: cell-based; conditions: 48 h; 1 μM midi-GAGR, dextran, alginate; 0.1 μM LA-GAGR; 0.01 μM HA-GAGR
Protocol: as §3

[10] = tested on: Rat cortical neurons (E17, DIV6); assay: LIVE/DEAD assay with FGFR1 inhibitor SU5402 and 4HNE; assay type: cell-based
Source text: as §2, with “To examine the extent to which midi-GAGR-mediated neuroprotection depends on FGFR1, rat cortical neurons (E17, DIV5) were pre-treated with 4 μM SU5402 (Sigma) for 6 h and treated with 10 μM 4HNE and either vehicle or 1 μM midi-GAGR for 24 h prior to cell viability/cytotoxicity assay. As controls, neurons were treated with SU5402, midi-GAGR, 4HNE, 4HNE plus midi-GAGR, or SU5402 plus midi-GAGR.” left out

Row | Molecule | fold change in average total neurite length compared to vehicle [4] | neuron death after Aβ42 peptide [5] | neuron death after 4HNE [5] | neuron death after H2O2 [5] | average intensity of pCREB in midi-GAGR-treated neurons after inhibitor pre-treatment [6] | further results
1 | alginate | did not enhance neuritogenesis | did not decrease | reduced | did not reduce | – | increase of the levels of nuclear p-CREB [1]: not significantly increased; 6-OHDA-induced cell death [2]: did not; increase of the levels of nuclear p-CREB [3]: not significantly increased
2 | CS(=O)(=O)c1cccc(CNc2nc(Nc3ccc4c(c3)CCC(=O)N4)ncc2C(F)(F)F)c1 [PF-573228] | – | – | – | – | did not decrease | –
3 | [D-Glc(β1→4)D-GlcA(β1→4)D-Glc(β1→4)L-Rha(α1→3]n [LA-GAGR] | ~1.6 fold | ~10% | 10% | ~13% | – | levels of pCREB by immunoblotting compared to control [7]: significantly increased; Antioxidant capacity, ABTS assay [8]: 15.4 μM Trolox; average intensity of nuclear pCREB compared to vehicle [9]: ~2 fold
4 | CN([C@@H](Cc1ccc(OS(=O)(=O)c2cccc3cnccc23)cc1)C(=O)N1CCN(c2ccccc2)CC1)S(=O)(=O)c1cccc2cnccc12 [KN-62] | – | – | – | – | decreased slightly but still statistically significantly | –
5 | Cc1c[nH]c(/C=C2\C(=O)Nc3ccccc32)c1CCC(=O)O [SU5402] | – | – | – | – | significantly decreased | percent of dead cells, pre-treatment then 4HNE ([10]; SU5402 4 μM 6 h, then 10 μM 4HNE 24 h): ~80%; percent of dead cells without 4HNE ([10]; SU5402 4 μM, midi-GAGR 1 μM): did not increase
6 | N#CC(=C(/N)Sc1ccccc1N)/C(C#N)=C(\N)Sc1ccccc1N [U0126] | – | – | – | – | significantly decreased | –
